From patent US11186606B2, “Compositions and methods of modulating the immune response by activating alpha protein kinase 1” (Shanghai Yao Yuan Biotechnology Co., Ltd., priority 2017, dated 2021) come the findings set out here.

One experiment has as its system ALPK1. Nature of the experiment: IL8 secretion in HEK293 cells (IL8 ELISA) as indicator of ALPK1 activation. Conditions: added to the FBS-containing medium, HEK293 cells, IL8 secretion.
Experiment [1] deals with phosphatase activity in the serum. Nature of the experiment: Incubation of H1b-ADP with FBS, product analysed by LC-MS. Conditions: 1 mM, pre-mixed with H1b-ADP before incubation with FBS. The class given is in vitro ADME, bovine. The text has this:
(§1) FBS contains 110-352 U/ml alkaline phosphatase.

Experiment [2] relates to bovine alkaline phosphatase. Nature of the experiment: Incubation of H1b-ADP with bovine alkaline phosphatase. Format: biochemical.
Text: as §1

Procedure for ALPK1: We pre-mixed H1b-ADP with phosphatase inhibitor sodium orthovanadate (Na3VO4) before incubation with FBS.
In these experiments, serial dilutions of the compounds were added to the tissue culture media of HEK293 cells with (FIG. 27B, FIG. 28B, FIG. 29B) or without (FIG. 26, FIG. 27A, FIG. 28A, FIG. 29A) 10% FBS, as indicated in the figures. After 4 hours, the cell supernatant was collected and analyzed for IL8 concentration using IL8 ELISA (BD) as an indicator of ALPK1 activation.

As for `[Na+].[Na+].[Na+].[O]=[V]([O-])([O-])[O-]` [Na3VO4, sodium orthovanadate], the “restoration of H1b-ADP's activity in the cell based assay” value with ALPK1 was “could restore H1b-ADP's activity”. In addition, the H1b-ADP hydrolysis entry in experiment [1] is given as “effectively inhibited H1b-ADP hydrolysis”. For the same molecule, the “phosphatase activity (H1b-ADP hydrolysis)” value in experiment [2] is “blocked by increasing amount of Na3VO4”.
